# In US20040192624A1, “Method for treating a disease, disorder or adverse effect caused by an elevated serum concentration of an UGT1A1 substrate” (priority 2003, published 2004):
# Experiments:
# [1] = tested on: bilirubin-conjugating activity; settings: indinavir treatment; cited from earlier work
# [2] = Ethinylestradiol pharmacokinetics alone and with ritonavir in healthy female volunteers; assay type: in vivo, human; settings: for t1/2: ethinylestradiol terminal phase, reported as harmonic mean
# Description: This was an open-label, single-center study in healthy female volunteers who had not received an oral contraceptive for a minimum of six months prior to study start. Subjects received the first dose of oral contraceptive containing 50 μg of ethinyl estradiol on Day 1. […] On Day 15, 300 mg q12h was administered, 400 mg q12h was given on Day 16, and 500 mg q12h was administered thereafter. […] Blood samples for ethinylestradiol concentrations were collected for 48 h after each of the oral contraceptive doses.
# Ethinylestradiol was supplied as Demulen@ 1/50-21 tablets (G.D. Searle & Co.) containing 50 μg of ethinylestradiol and 1 mg of ethynodiol diacetate and was administered at 8:00 a.m. on Day 1 and Day 29 with approximately 240 mL of water and within 15 minutes of a meal or snack.
# Subjects were confined for 64 hours from Day -1 (day prior to the initial dose) through the first 48 hour blood collection (morning of Day 3) and for 64 hours from Day 28 through the second 48 hour blood collection (morning of Day 31). In addition, subjects came to the clinical testing unit as outpatients for meals, dosing and other study activities twice daily for a total of 14 consecutive days, starting on Day 15. Strenuous activity during confinement was not permitted. During confinement, subjects abstained from all food and beverages except for the scheduled meals and snacks provided in the study. Water was available ad libitum. All meals were standardized with regard to content during confinement. Breakfast, lunch, and dinner were served at approximately 7:30 a.m., 1:00 p.m. and 7:30 p.m. and snacks were provided at approximately 10:00 p.m., except on Days-1 and 28 when the snack was served at 9:45 p.m. An 8 hour fast was required prior to all blood collections for clinical laboratory analyses. The sequence of starting breakfast and dinner on each dosing day during confinement was maintained to the minute such that the time intervals relative to dosing were the same among all subjects.
# Blood samples (7 mL) were collected for serum ethinyl estradiol concentrations at the following times relative to the dose on Day 1 and Day 29: prior to (0 h) and at 0.5, 1, 2, 3, 4, 6, 8, 10, 12, 18, 24, 30, 36, and 48 h post-dose. […] All plasma and serum samples were packed with dry ice and shipped to the analytical sites.
# Analysis of serum samples for determination of ethinyl estradiol was performed at Pharmaco LSR, Richmond, Va. Ethinylestradiol serum concentrations were determined using a gas chromatography/mass spectrometry (GC/MS) method. 17α-ethinylestradiol and its corresponding isotopically labeled internal standard were isolated from human serum by buffering the serum to pH 8.6 and then extracting with an ethyl ether/methylene chloride mixture. The organic layer was exchanged into aqueous base, washed with hexane and then acidified and extracted with methylene chloride. The extract was dried with sodium carbonate, evaporated and derivatized. The derivatized extract was stored at −20° C. until analysis. Analysis was by capillary GC/MS using negative chemical ionization with selected ion monitoring. This method has been validated over 17α-ethinylestradiol concentrations ranging from 2.00 to 256 pg/mL for a 1.0 mL serum volume, with a minimum quantitation limit of 2.00 pg/mL.
# Ethinylestradiol pharmacokinetic parameters were estimated following two single doses, on Day 1 and Day 29, using noncompartmental methods. The pharmacokinetic parameters were calculated using the intended sampling times; all samples were collected within 10% of intended sampling times. Maximal plasma concentration (Cmax,) and time to reach Cmax (Tmax) were obtained directly from individual concentration vs. time profiles. […]
# [3] = tested on: UDP-glucuronosyltransferase 1 family, member 1; assay: Rat liver microarray (Affymetrix Rat U34), induction of probe sequences by ritonavir; assay type: in vivo, Sprague-Dawley rats; settings: 3-Day Studies
# [4] = tested on: 3-methylcholanthrene-inducible UDP-glucuronosyltransferase; assay: as above; assay type: in vivo, Sprague-Dawley rats; settings: 3-Day Studies, probe sequence 4 of 5, rat liver
# [5] = tested on: UDP-glucuronosyltransferase 1A (UGT1A); assay: Rat liver microarray, all 5 UGT1A probe sets; assay type: in vivo, Sprague-Dawley rats; settings: rats, dose levels of 100 mg/kg and higher, after 1 and 3 days of treatment
# [6] = tested on: UDP glucuronosyltransferase, exon 1.; assay: Rat liver microarray (Affymetrix Rat U34), induction of probe sequences by ritonavir; settings: 3-Day Studies, probe sequence 5 of 5, rat liver
# [7] = tested on: UGT1A1; assay: Hepatic 17α-ethinylestradiol glucuronidation activity in liver microsomes of treated rats; settings: both male and female rats
# [8] = tested on: bilirubin conjugation in human microsomes; settings: in vitro system of human microsomes; cited from earlier work
# [9] = biological target: T1, UGT1A1 isoform (Homo sapiens, UniProt P22309); settings: human cells transfected with the UGT1A1 isoform; cited from earlier work
# T1 sequence (P22309 26-533): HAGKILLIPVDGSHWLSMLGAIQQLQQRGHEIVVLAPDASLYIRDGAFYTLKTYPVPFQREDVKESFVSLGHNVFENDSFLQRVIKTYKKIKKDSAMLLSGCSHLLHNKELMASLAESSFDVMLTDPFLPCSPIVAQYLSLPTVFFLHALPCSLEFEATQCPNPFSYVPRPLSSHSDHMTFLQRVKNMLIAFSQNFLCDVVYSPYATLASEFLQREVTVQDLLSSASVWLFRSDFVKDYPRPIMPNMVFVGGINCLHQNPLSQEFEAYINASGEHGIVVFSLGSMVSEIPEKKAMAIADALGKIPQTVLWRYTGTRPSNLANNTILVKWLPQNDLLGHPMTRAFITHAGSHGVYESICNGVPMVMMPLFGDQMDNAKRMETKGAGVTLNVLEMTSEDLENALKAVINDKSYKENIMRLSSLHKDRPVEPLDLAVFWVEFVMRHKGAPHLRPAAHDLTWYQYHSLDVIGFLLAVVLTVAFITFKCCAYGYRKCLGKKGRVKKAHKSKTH
# [10] = female, human, serum, po, 50 μg
compound,measurement,setting,value
CC(C)(C)NC(=O)[C@@H]1CN(Cc2cccnc2)CCN1C[C@@H](O)C[C@@H](Cc1ccccc1)C(=O)N[C@H]1c2ccccc2C[C@H]1O [indinavir],cause of elevations in serum-unconjugated bilirubin,[1],direct inhibition of bilirubin-conjugating activity
"C#C[C@]1(O)CC[C@H]2[C@@H]3CCc4cc(O)ccc4[C@H]3CC[C@@]21C [Ethinylestradiol, 17α-ethinylestradiol]",t1/2,"[2]; alone Day 1, with ritonavir 500 mg q12h Day 29",17.0 h
same,t1/2,"[2]; alone Day 1, with ritonavir 500 mg q12h Day 29, listed as ethinyl estradiol",17.0 h
same,half-life,"[2]; female, human, serum, oral, 500 mg",17 h
same,AUC(0-inf),[2]; [10],1.67 ± 0.377 ng·h/mL
same,Cmax,[2]; [10],0.104 ± 0.024 ng/mL
same,Tmax,"[2]; female, human, serum, po, 50 μg, serum ethinylestradiol after single oral contraceptive dose (50 μg), Mean ± SD, n = 23, alone Day 1, with ritonavir 500 mg q12h Day 29",~4 h
CC(C)c1nc(CN(C)C(=O)N[C@H](C(=O)N[C@@H](Cc2ccccc2)C[C@H](O)[C@H](Cc2ccccc2)NC(=O)OCc2cncs2)C(C)C)cs1 [ritonavir],"Fold change, UDP-glucuronosyltransferase 1 family, member 1","[3]; 75 mg/kg, probe sequence 1 of 5, rat liver",1.56
same,"Fold change, UDP-glucuronosyltransferase 1 family, member 1","[3]; 75 mg/kg, probe sequence 2 of 5, rat liver",1.38
same,"Fold change, UDP-glucuronosyltransferase 1 family, member 1","[3]; 75 mg/kg, probe sequence 3 of 5, rat liver",1.57
same,"Fold change, UDP-glucuronosyltransferase 1 family, member 1","[3]; 100 mg/kg, probe sequence 1 of 5, rat liver",1.67
same,"Fold change, UDP-glucuronosyltransferase 1 family, member 1","[3]; 100 mg/kg, probe sequence 2 of 5, rat liver",1.46
same,"Fold change, UDP-glucuronosyltransferase 1 family, member 1","[3]; 100 mg/kg, probe sequence 3 of 5, rat liver",1.61
same,"Fold change, UDP-glucuronosyltransferase 1 family, member 1","[3]; 125 mg/kg, probe sequence 1 of 5, rat liver",1.54
same,"Fold change, UDP-glucuronosyltransferase 1 family, member 1","[3]; 125 mg/kg, probe sequence 2 of 5, rat liver",1.42
same,"Fold change, UDP-glucuronosyltransferase 1 family, member 1","[3]; 125 mg/kg, probe sequence 3 of 5, rat liver",1.65
same,"Fold change, 3-methylcholanthrene-inducible UDP-glucuronosyltransferase",[4]; 75 mg/kg,1.97
same,"Fold change, 3-methylcholanthrene-inducible UDP-glucuronosyltransferase",[4]; 100 mg/kg,2.26
same,"Fold change, 3-methylcholanthrene-inducible UDP-glucuronosyltransferase",[4]; 125 mg/kg,2.25
same,UGT1A levels for all probe sets,[5],consistent increase
same,"Fold change, UDP glucuronosyltransferase, exon 1.",[6]; 100 mg/kg,3.96
same,"Fold change, UDP glucuronosyltransferase, exon 1.",[6]; 125 mg/kg,5.06
same,"effect on glucuronidation of 17α-ethinylestradiol, a UGT1A1 substrate",[7],significantly increase
COC(=O)N[C@H](C(=O)N[C@@H](Cc1ccccc1)[C@@H](O)CN(Cc1ccc(-c2ccccn2)cc1)NC(=O)[C@@H](NC(=O)OC)C(C)(C)C)C(C)(C)C [atazanavir],inhibition of bilirubin conjugation,[8],micromolar range
same,inhibition of bilirubin conjugation,[9],micromolar range
